{
  "source": "patent US7053105B2",
  "about": "“Farnesyl transferase inhibiting quinoline and quinazoline derivatives as farnesyl transferase inhibitors” (Janssen Pharmaceutica, N.V., priority 2000, dated 2006)",
  "data": [
    {"units": {"melting point": "°C"}, "values": [
      {"smiles": "Cc1cc(-c2cccc(Cl)c2)c2cc(C(O)(c3ccc(Cl)cc3)c3nncn3C)ccc2n1.O", "note": "(centres unmarked) (hydrate or solvate)", "melting point": 150},
      {"smiles": "Cn1cncc1C(O)(c1ccc(Cl)cc1)c1ccc2nc(C=NO)cc(-c3cccc(Cl)c3)c2c1", "note": "(racemic) [Example B1, (±)-4-(3-chlorophenyl)-6-[(4-chlorophenyl)hydroxy(1-methyl-1H-imidazol-5-yl)methyl]-2-quinolinecarboxaldehyde, oxime]", "melting point": 205},
      {"smiles": "Cn1cncc1C(O)(c1ccc(Cl)cc1)c1ccc2nc(/C=C/C(N)=O)cc(-c3cccc(Cl)c3)c2c1", "note": "(racemic) [Example B11, (±)-(E)-3-[4-(3-chlorophenyl)-6-[(4-chlorophenyl)hydroxy(1-methyl-1H-imidazol-5-yl)methyl]-2-quinolinyl]-2-propenamide]", "melting point": 80},
      {"smiles": "Cn1cncc1-c1nc(-c2cccc(Cl)c2)c2cc(C(O)(c3ccc(Cl)cc3)c3cncn3C)ccc2n1", "note": "(stereo not drawn) [Example B6, 4-(3-chlorophenyl)-α-(4-chlorophenyl)-α,2-bis(1-methyl-1H-imidazol-5-yl)-6-quinazolinemethanol]", "melting point": 160},
      {"smiles": "Cc1nc(-c2cccc(Cl)c2)c2cc(C(O)(c3ccc(Cl)cc3)c3cncn3C)ccc2n1", "note": "(stereo not drawn) [Example B13, 4-(3-chlorophenyl)-α-(4-chlorophenyl)-2-methyl-α-(1-methyl-1H-imidazol-5-yl)-6-quinazolinemethanol]", "melting point": 223},
      {"smiles": "Cc1cc(-c2cccc(Cl)c2)c2cc(C(O)(c3ccc(Cl)cc3)c3nnc(S)n3C)ccc2n1", "note": "(stereo not drawn) [Example B14a, 4-(3-chlorophenyl)-α-(4-chlorophenyl)-α-(5-mercapto-4-methyl-4H-1,2,4-triazol-3-yl)-2-methyl-6-quinolinemethanol]", "melting point": 166},
      {"smiles": "CSc1nnc(C(O)(c2ccc(Cl)cc2)c2ccc3nc(C)cc(-c4cccc(Cl)c4)c3c2)n1C", "note": "(stereo not drawn) [Example B14b, 4-(3-chlorophenyl)-α-(4-chlorophenyl)-2-methyl-α-[4-methyl-5-(methylthio)-4H-1,2,4-triazol-3-yl]-6-quinolinemethanol]", "melting point": 142},
      {"smiles": "CSc1nnc(C(N)(c2ccc(Cl)cc2)c2ccc3nc(C)cc(-c4cccc(Cl)c4)c3c2)n1C", "note": "(stereo not drawn) [Example B16b, 4-(3-chlorophenyl)-α-(4-chlorophenyl)-2-methyl-α-[4-methyl-5-(methylthio)-4H-1,2,4-triazol-3-yl]-6-quinolinemethanamine]", "melting point": 128},
      {"smiles": "Cn1cncc1C(O)(c1ccc(Cl)cc1)c1ccc2nc(N)nc(-c3cccc(Cl)c3)c2c1", "note": "(stereo not drawn) [Example B19, 2-amino-4-(3-chlorophenyl)-α-(4-chlorophenyl)-α-(1-methyl-1H-imidazol-5-yl)-6-quinazolinemethanol]", "melting point": 235},
      {"smiles": "Cn1cncc1C(O)(c1ccc(Cl)cc1)c1ccc2nc(C#Cc3ccccc3)cc(-c3cccc(Cl)c3)c2c1", "note": "(stereo not drawn) [Example B25, 4-(3-chlorophenyl)-α-(4-chlorophenyl)-α-(1-methyl-1H-imidazol-5-yl)-2-(phenylethynyl)-6-quinolinemethanol]", "melting point": 154},
      {"smiles": "Cn1cncc1C(O)(c1ccc(Cl)cc1)c1ccc2nc(-c3cccnc3)nc(-c3cccc(Cl)c3)c2c1", "note": "(stereo not drawn) [Example B26, 4-(3-chlorophenyl)-α-(4-chlorophenyl)-α-(1-methyl-1H-imidazol-5-yl)-2-(3-pyridinyl)-6-quinazolinemethanol]", "melting point": 178}
    ]}
  ]
}
